Several values for one entry are separate records, joined by “and”; a condition that tells them apart may be missing. Identical values can stand only once. Marks after values point to notes of the source that are not given here.
What was measured:
[1] = Caco-2 monolayer transport (bioavailability) study, AB and BA directions; type: in vitro ADME, Homo sapiens; conditions: human
Procedure: (§1) A reversed phase C18 column (Luna 5 μm C18(2) 100 Å, LC Column 250 × 4.6 mm, Phenomenex) was used to separate the polyphenols at a flow rate of 0.7 mL/min with an injection volume of 60 µL. The detection was carried out at 520 nm for anthocyanins (M3G, D3G and Pet3G), at 328 nm for CA, at 356 nm for flavonols (Q3G, K3Gal and K3G) and at 280 nm for GA and SA. The mobile phases were (A) acetonitrile 100% and (B) water 0.1% trifluoroacetic acid (v/v). The gradient was programmed as follows: 10% A 0 min, 10–80% A (0–20 min), 80–100% A (20–25 min), 100% A (25–30 min); 10% A (30–35 min) and 10% A (35–40 min). Every polyphenol was quantified using the corresponding reference standard calibration curve. Each of the quantified phenolic compound concentration was expressed as mg/mL
(§2) For the transport experiment Caco-2 cells were cultured at a density of 4 × 10^4 cells/cm^2 in Transwell inserts (12 mm i.d., 1.12 cm^2 growth area, 0.4 µm mean pore size polycarbonate membranes, Corning Inc., Milwaukee, WI, USA) placed in 12-well plates. Caco-2 cells were grown in DMEM in an incubator at 37 °C in a humidified atmosphere containing 5% CO2.
(§3) Bioavailability studies were performed in triplicate after 21 days of cell growth. Only inserts with stable TEER values higher than ≥300 Ω cm^2 were considered acceptable to perform the bioavailability study. For that purpose, DMEM media was removed, the monolayer was washed with PBS and HBSS was supplied to the cells.
(§4) Likewise, the GSE stock solution was diluted in HBSS medium to prepare GSE solutions S1 and S2. GSE solutions S1 and S2 had concentrations of 15 mg/mL and 22 mg/mL, respectively. These concentrations were established considering previous studies with grape pomace extracts that concluded that intestinal concentrations of 1–2% (w/v) show potential bioactivities and are safe to be used as a food ingredient.
(§5) The apical side represents the intestinal lumen and the basolateral side represents the bloodstream. Each sample (100 µL) was immediately acidified with 1M HCl to a final concentration of 0.007 M and subsequently frozen at −20 °C until analysis by HPLC (according to the method described in Section 2.5). Each experiment was carried out on 3 individual wells. The transport efficiency (TE) percentage was calculated according to Equation (2):Transport efficiency (%) = (C/C0) × 100(2) where, C is the polyphenol concentration at the acceptor side over time and C0 is the initial concentration at the donor side. TE values were calculated for the nine polyphenols identified in the grape skin extract.
(§6) The apparent permeability coefficient (Papp) of the polyphenols in GSE was calculated for apical to basolateral side (AB) and basolateral to apical side (BA) flux studies according to Equation (3):Papp (cm/s) = (dQ/dt) × (VR/AC0)(3) where, dQ/dt is the permeability rate which means the steady-state linear rate of change of concentration (mg/L) per second (s) at the acceptor side; A is the surface area of the cell monolayer (1.12 cm^2). C0 is the initial concentration at the donor side (mg/L) at t = 0 s and VR is the volume of the solution of the acceptor side (mL).
(§7) The efflux ratio (ER) of the polyphenol was assessed by calculating the Equation (4):ER = Papp (BA)/Papp (AB)(4) where, Papp (BA) is the apparent permeability coefficient of the polyphenol from basolateral to apical side and Papp (AB) is the apparent permeability coefficient from apical to basolateral side. ER is a measure of the relative contributions of active and passive transport to bi-direction flux across the cell monolayer.

Caco-2 cell monolayer = assay: as above; type: in vitro ADME, Homo sapiens; conditions: for TE (%) transport efficiency: after 180 min
Procedure: as §1, §2, §3, §4, §5, §6, §7

Caco-2 cells = conditions: cited from earlier work
[2] = AB experiment, S1 (15 mg/mL GSE), 0 to 180 min
[3] = AB experiment, S2 (22 mg/mL GSE), 0 to 180 min
[4] = AB experiment, acceptor side, S2 (22 mg/mL GSE)
[5] = AB experiment, donor side, S1 (15 mg/mL GSE)
[6] = AB experiment, donor side, S2 (22 mg/mL GSE)
[7] = BA experiment, acceptor side, S1 (15 mg/mL GSE)
[8] = BA experiment, acceptor side, S2 (22 mg/mL GSE)
[9] = BA experiment, donor side, S1 (15 mg/mL GSE)
[10] = BA experiment, donor side, S2 (22 mg/mL GSE)

Compound: COc1cc(-c2[o+]c3cc(O)cc(O)c3cc2O[C@@H]2O[C@H](CO)[C@@H](O)[C@H](O)[C@H]2O)cc(OC)c1O [M3G, malvidin-3-O-glucoside]
- efflux ratio at 180 min, 22 mg/mL ([1]; Caco-2, Papp (BA)/Papp (AB), S2 (22 mg/mL GSE), read-out: ER (efflux ratio)): > 1
- Papp A→B at 180 min, 22 mg/mL ([1]; Caco-2, apical to basolateral, S2 (22 mg/mL GSE)): 15 ± 1 ×10⁻⁶ cm/s
- Papp B→A at 180 min, 15 mg/mL ([1]; Caco-2, basolateral to apical, S1 (15 mg/mL GSE)): 33 ± 2 ×10⁻⁶ cm/s
- Papp B→A at 180 min, 22 mg/mL ([1]; Caco-2, basolateral to apical, S2 (22 mg/mL GSE)): 18 ± 1 ×10⁻⁶ cm/s
- reduction in concentration on the apical (donor) side (Caco-2 cell monolayer; [2]): 75 ± 2%
- reduction in concentration on the apical (donor) side (Caco-2 cell monolayer; [3]): 58 ± 3%
- TE (%) transport efficiency (Caco-2 cell monolayer; AB experiment, S2 (22 mg/mL GSE)): 1.08 ± 0.01%
- Basolateral Side 180 min (Caco-2 cell monolayer; AB experiment, acceptor side, S1 (15 mg/mL GSE)): undetectable
- Basolateral Side 75 min (Caco-2 cell monolayer; [4]): 0.12 ± 0.01 ^b mg/L
- Basolateral Side 90 min (Caco-2 cell monolayer; [4]): 0.13 ± 0.01 ^c,d mg/L
- Basolateral Side 115 min (Caco-2 cell monolayer; [4]): 0.14 ± 0.01 ^d,c mg/L
- Basolateral Side 180 min (Caco-2 cell monolayer; [4]): 0.15 ± 0.01 ^c mg/L
- Apical Side 0 min (Caco-2 cell monolayer; [5]): 6.1 ± 0.3 mg/L and 6.1 ± 0.3 ^a mg/L
- Apical Side 75 min (Caco-2 cell monolayer; [5]): 4.5 ± 0.2 ^b mg/L
- Apical Side 90 min (Caco-2 cell monolayer; [5]): 3.2 ± 0.1 ^c mg/L
- Apical Side 115 min (Caco-2 cell monolayer; [5]): 2.26 ± 0.06 ^d mg/L
- Apical Side 180 min (Caco-2 cell monolayer; [5]): 1.53 ± 0.04 mg/L and 1.53 ± 0.04 ^c mg/L
- Apical Side 0 min (Caco-2 cell monolayer; [6]): 14 ± 1 ^a mg/L
- Apical Side 75 min (Caco-2 cell monolayer; [6]): 11.6 ± 0.9 ^b mg/L
- Apical Side 90 min (Caco-2 cell monolayer; [6]): 9.2 ± 0.9 ^c mg/L
- Apical Side 115 min (Caco-2 cell monolayer; [6]): 7.2 ± 0.9 ^d mg/L
- Apical Side 180 min (Caco-2 cell monolayer; [6]): 6.0 ± 0.8 mg/L and 6.0 ± 0.8 ^d mg/L
- detection at the acceptor side (Caco-2 cell monolayer; AB experiments, basolateral side): detected
- TE (%) transport efficiency (Caco-2 cell monolayer; BA experiment, S2 (22 mg/mL GSE)): 1.73 ± 0.04%
- Apical Side 75 min (Caco-2 cell monolayer; [7]): 0.19 ± 0.02 ^a,b mg/L
- Apical Side 90 min (Caco-2 cell monolayer; [7]): 0.23 ± 0.02 ^b,c mg/L
- Apical Side 115 min (Caco-2 cell monolayer; [7]): 0.28 ± 0.02 ^c mg/L
- Apical Side 180 min (Caco-2 cell monolayer; [7]): 0.33 ± 0.02 ^c mg/L
- Apical Side 75 min (Caco-2 cell monolayer; [8]): 0.18 ± 0.01 ^b mg/L
- Apical Side 90 min (Caco-2 cell monolayer; [8]): 0.22 ± 0.01 ^c mg/L
- Apical Side 115 min (Caco-2 cell monolayer; [8]): 0.26 ± 0.01 ^d mg/L
- Apical Side 180 min (Caco-2 cell monolayer; [8]): 0.30 ± 0.01 ^c mg/L
- Basolateral Side 0 min (Caco-2 cell monolayer; [9]): 10.4 ± 0.7 ^a mg/L
- Basolateral Side 75 min (Caco-2 cell monolayer; [9]): 9.7 ± 0.6 ^b mg/L
- Basolateral Side 90 min (Caco-2 cell monolayer; [9]): 9.1 ± 0.6 ^c mg/L
- Basolateral Side 115 min (Caco-2 cell monolayer; [9]): 8.5 ± 0.6 ^d mg/L
- Basolateral Side 180 min (Caco-2 cell monolayer; [9]): 8.0 ± 0.6 ^c mg/L
- Basolateral Side 0 min (Caco-2 cell monolayer; [10]): 17.5 ± 0.4 ^a mg/L
- Basolateral Side 75 min (Caco-2 cell monolayer; [10]): 16.4 ± 0.4 ^b mg/L
- Basolateral Side 90 min (Caco-2 cell monolayer; [10]): 15.4 ± 0.3 ^c mg/L
- Basolateral Side 115 min (Caco-2 cell monolayer; [10]): 14.5 ± 0.3 ^c,d mg/L
- Basolateral Side 180 min (Caco-2 cell monolayer; [10]): 13.7 ± 0.2 ^c mg/L
- detection at the acceptor side (Caco-2 cell monolayer; BA experiments, apical side): detected
- transepithelial transport M3G efficiency (Caco-2 cells; Caco-2 cells, rabbiteye blueberry extract, depending on initial extract concentration, after 2 h): 6.93–7.31%
- M3G transport efficiency (Caco-2 cells; after 240 min): 0.35%

Compound: COc1cc(C(=O)O)cc(OC)c1O [SA, syringic acid]
- detection at the acceptor side of the Caco-2 cell monolayer (Caco-2 cell monolayer; AB and BA experiments): not detected
- reduction in concentration on the apical (donor) side (Caco-2 cell monolayer; [2]): 67 ± 4%
- reduction in concentration on the apical (donor) side (Caco-2 cell monolayer; [3]): 55 ± 2%
- Apical Side 0 min (Caco-2 cell monolayer; [5]): 0.70 ± 0.03 mg/L and 0.70 ± 0.03 ^a mg/L
- Apical Side 75 min (Caco-2 cell monolayer; [5]): 0.54 ± 0.03 ^b mg/L
- Apical Side 90 min (Caco-2 cell monolayer; [5]): 0.42 ± 0.03 ^c mg/L
- Apical Side 115 min (Caco-2 cell monolayer; [5]): 0.32 ± 0.03 ^d mg/L
- Apical Side 180 min (Caco-2 cell monolayer; [5]): 0.23 ± 0.03 mg/L and 0.23 ± 0.03 ^c mg/L
- Apical Side 0 min (Caco-2 cell monolayer; [6]): 1.48 ± 0.06 mg/L and 1.48 ± 0.06 ^a mg/L
- Apical Side 75 min (Caco-2 cell monolayer; [6]): 1.21 ± 0.04 ^b mg/L
- Apical Side 90 min (Caco-2 cell monolayer; [6]): 1.03 ± 0.03 ^c mg/L
- Apical Side 115 min (Caco-2 cell monolayer; [6]): 0.82 ± 0.02 ^d mg/L
- Apical Side 180 min (Caco-2 cell monolayer; [6]): 0.67 ± 0.03 mg/L and 0.67 ± 0.03 ^c mg/L
- reduction in concentration on the basolateral (donor) side (Caco-2 cell monolayer; BA experiment, S2 (22 mg/mL GSE), 0 to 180 min): 23 ± 1%
- Basolateral Side 0 min (Caco-2 cell monolayer; [9]): 0.84 ± 0.08 ^a mg/L
- Basolateral Side 75 min (Caco-2 cell monolayer; [9]): 0.72 ± 0.07 ^a,b mg/L
- Basolateral Side 90 min (Caco-2 cell monolayer; [9]): 0.63 ± 0.07 ^b,c mg/L
- Basolateral Side 115 min (Caco-2 cell monolayer; [9]): 0.53 ± 0.06 ^c,d mg/L
- Basolateral Side 180 min (Caco-2 cell monolayer; [9]): 0.44 ± 0.06 ^d mg/L
- Basolateral Side 0 min (Caco-2 cell monolayer; [10]): 1.1 ± 0.1 ^a mg/L
- Basolateral Side 75 min (Caco-2 cell monolayer; [10]): 1.10 ± 0.09 ^a,b mg/L
- Basolateral Side 90 min (Caco-2 cell monolayer; [10]): 1.03 ± 0.09 ^a,b,c mg/L
- Basolateral Side 115 min (Caco-2 cell monolayer; [10]): 0.96 ± 0.08 ^b,c mg/L
- Basolateral Side 180 min (Caco-2 cell monolayer; [10]): 0.90 ± 0.08 mg/L and 0.901 ± 0.08 ^c mg/L
- detection at the acceptor side (Caco-2 cell monolayer; BA experiments, apical side): detected

Reference: paper PMC12248599, “Exploring the Bioavailability of Red Grape Skin Extract Polyphenols: A Caco-2 Cell Model Study” (Foods, 2025)
